Measurements reported in US20240300943A1, “NOVEL SALTS OF HETEROCYCLIC COMPOUND AS PROTEIN KINASE INHIBITOR AND USES THEREOF” (HK INNO.N CORPORATION, priority 2021, published 2024).

Key:
Assay type in all cases: physicochemical
[1] = Measurement of water solubility; conditions: saturated solution shaken at room temperature for 24 hours
Experimental: A liquid phase was taken out of the solution and filtered using a 0.22 μm PVDF filter. The filtered liquid phase was diluted 10-fold for LC analysis.
LC analysis was performed by the following method.

[2] = Physical stability evaluation under stress conditions
Experimental: In order to evaluate physical stability, samples were packaged in the form of ((LPDE+N2)+silica gel 1 g+LDPE)+Al-Bag, and stored under stress conditions (60° C.±2° C./80% RH±5%) for 2/4 weeks before evaluation.
In table 2, initial is a result measured after preparation of salts, and S2W and S4W are results measured after two and four weeks while being exposed to stress conditions, respectively.

[3] = Photostability evaluation
Excerpt: Samples were packaged in LPDE bag, and stored under visible (1.2M Lux-h), UV (200 W-h/m2) and UV+visible conditions, respectively, and then evaluated.

[4] = Hygroscopicity evaluation; conditions: for Individual related material: in %
Excerpt: Samples were placed in a glass desiccator in which relative humidity was adjusted to 33%, 53%, 75%, and 93%, and then stored for two and four weeks to be evaluated.

C[C@@H]1CN(C(=O)CC#N)CC=C1c1cc(NC(=O)C2CC2)nc2[nH]ccc12 [Example 1, (S)—N-(4-(1-(2-cyanoacetyl)-3-methyl-1,2,3,6-tetrahydropyridin-4-yl)-1H-pyrrolo[2,3-b]pyridin-6-yl)cyclopropanecarboxamide]
Water solubility [1]: 5900 µg/mL | C.I quantitative ([2]; Initial): 9.2% | Content (anhydride, as anhydride) ([2]; Initial): 97.9% | Moisture ([2]; Initial): 3.33% | Purity: Individual related material ([2]; Initial): 0.13% | Purity: Total related material ([2]; Initial): 0.66% | C.I quantitative ([2]; S2W: 2 weeks at 60° C./80% RH): 9.1% | Content (anhydride, as anhydride) ([2]; S2W: 2 weeks at 60° C./80% RH): 98.0% | Purity: Individual related material ([2]; S2W: 2 weeks at 60° C./80% RH): 0.13% | Purity: Total related material ([2]; S2W: 2 weeks at 60° C./80% RH): 1.08% | C.I quantitative ([2]; S4W: 4 weeks at 60° C./80% RH): 9.1% | Content (anhydride, as anhydride) ([2]; S4W: 4 weeks at 60° C./80% RH): 98.6% | Purity: Individual related material ([2]; S4W: 4 weeks at 60° C./80% RH): 0.34% | Purity: Total related material ([2]; S4W: 4 weeks at 60° C./80% RH): 1.28% | Individual related material ([3]; Initial): 0.13% | Total related material ([3]; Initial): 0.66% | Individual related material ([3]; Solid, Control): 0.11% | Total related material ([3]; Solid, Control): 0.55% | Individual related material ([3]; Solid, UV (200 W-h/m2)): 0.36% | Total related material ([3]; Solid, UV (200 W-h/m2)): 2.31% | Individual related material ([3]; Solid, UV + Vis): 0.81% | Total related material ([3]; Solid, UV + Vis): 4.74% | Individual related material ([3]; Solid, UV + Vis Control): 0.12% | Total related material ([3]; Solid, UV + Vis Control): 0.65% | Individual related material ([3]; Solid, Vis (1.2M Lux-h)): 0.66% | Total related material ([3]; Solid, Vis (1.2M Lux-h)): 3.83% | Total related material ([4]; Initial): 0.66% | Water ([4]; Initial): 3.33% | Individual related material ([4]; Initial): 0.13 | Total related material ([4]; relative humidity 33%, 2 W): 0.68% | Water ([4]; relative humidity 33%, 2 W): 5.22% | Individual related material ([4]; relative humidity 33%, 2 W): 0.12 | Total related material ([4]; relative humidity 33%, 4 W): 0.62% | Water ([4]; relative humidity 33%, 4 W): 5.32% | Individual related material ([4]; relative humidity 33%, 4 W): 0.11 | Total related material ([4]; relative humidity 53%, 2 W): 0.78% | Water ([4]; relative humidity 53%, 2 W): 5.21% | Individual related material ([4]; relative humidity 53%, 2 W): 0.12 | Total related material ([4]; relative humidity 53%, 4 W): 0.78% | Water ([4]; relative humidity 53%, 4 W): 5.38% | Individual related material ([4]; relative humidity 53%, 4 W): 0.12 | Total related material ([4]; relative humidity 75%, 2 W): 0.69% | Water ([4]; relative humidity 75%, 2 W): 5.24% | Individual related material ([4]; relative humidity 75%, 2 W): 0.12 | Total related material ([4]; relative humidity 75%, 4 W): 0.68% | Water ([4]; relative humidity 75%, 4 W): 5.41% | Individual related material ([4]; relative humidity 75%, 4 W): 0.11 | Total related material ([4]; relative humidity 93%, 2 W): 0.89% | Water ([4]; relative humidity 93%, 2 W): 5.37% | Individual related material ([4]; relative humidity 93%, 2 W): 0.12 | Total related material ([4]; relative humidity 93%, 4 W): 0.94% | Water ([4]; relative humidity 93%, 4 W): 5.43% | Individual related material ([4]; relative humidity 93%, 4 W): 0.13

C[C@@H]1CN(C(=O)CC#N)CC=C1c1cc(NC(=O)C2CC2)nc2[nH]ccc12 [Example 2, (S)—N-(4-(1-(2-cyanoacetyl)-3-methyl-1,2,3,6-tetrahydropyridin-4-yl)-1H-pyrrolo[2,3-b]pyridin-6-yl)cyclopropanecarboxamide]
Water solubility [1]: 5900 µg/mL | C.I quantitative ([2]; Initial): 18.1% | Content (anhydride, as anhydride) ([2]; Initial): 100.7% | Moisture ([2]; Initial): 3.93% | Purity: Individual related material ([2]; Initial): 0.12% | Purity: Total related material ([2]; Initial): 0.56% | C.I quantitative ([2]; S2W: 2 weeks at 60° C./80% RH): 17.8% | Content (anhydride, as anhydride) ([2]; S2W: 2 weeks at 60° C./80% RH): 101.4% | Moisture ([2]; S2W: 2 weeks at 60° C./80% RH): 3.93% | Purity: Individual related material ([2]; S2W: 2 weeks at 60° C./80% RH): 0.11% | Purity: Total related material ([2]; S2W: 2 weeks at 60° C./80% RH): 0.63% | C.I quantitative ([2]; S4W: 4 weeks at 60° C./80% RH): 17.8% | Content (anhydride, as anhydride) ([2]; S4W: 4 weeks at 60° C./80% RH): 99.2% | Moisture ([2]; S4W: 4 weeks at 60° C./80% RH): 3.79% | Purity: Individual related material ([2]; S4W: 4 weeks at 60° C./80% RH): 0.14% | Purity: Total related material ([2]; S4W: 4 weeks at 60° C./80% RH): 0.58% | Individual related material ([3]; Initial): 0.12% | Total related material ([3]; Initial): 0.56% | Individual related material ([3]; Solid, Control): 0.11% | Total related material ([3]; Solid, Control): 0.44% | Individual related material ([3]; Solid, UV (200 W-h/m2)): 0.11% | Total related material ([3]; Solid, UV (200 W-h/m2)): 0.6% | Individual related material ([3]; Solid, UV + Vis): 0.12% | Total related material ([3]; Solid, UV + Vis): 0.91% | Individual related material ([3]; Solid, UV + Vis Control): 0.12% | Total related material ([3]; Solid, UV + Vis Control): 0.48% | Individual related material ([3]; Solid, Vis (1.2M Lux-h)): 0.11% | Total related material ([3]; Solid, Vis (1.2M Lux-h)): 0.69% | Total related material ([4]; Initial): 0.56% | Water ([4]; Initial): 3.93% | Individual related material ([4]; Initial): 0.12 | Total related material ([4]; relative humidity 33%, 2 W): 0.53% | Water ([4]; relative humidity 33%, 2 W): 3.70% | Individual related material ([4]; relative humidity 33%, 2 W): 0.11 | Total related material ([4]; relative humidity 33%, 4 W): 0.55% | Water ([4]; relative humidity 33%, 4 W): 3.94% | Individual related material ([4]; relative humidity 33%, 4 W): 0.10 | Total related material ([4]; relative humidity 53%, 2 W): 0.66% | Water ([4]; relative humidity 53%, 2 W): 3.62% | Individual related material ([4]; relative humidity 53%, 2 W): 0.12 | Total related material ([4]; relative humidity 53%, 4 W): 0.59% | Water ([4]; relative humidity 53%, 4 W): 3.96% | Individual related material ([4]; relative humidity 53%, 4 W): 0.11 | Total related material ([4]; relative humidity 75%, 2 W): 0.58% | Water ([4]; relative humidity 75%, 2 W): 3.78% | Individual related material ([4]; relative humidity 75%, 2 W): 0.11 | Total related material ([4]; relative humidity 75%, 4 W): 0.61% | Water ([4]; relative humidity 75%, 4 W): 3.93% | Individual related material ([4]; relative humidity 75%, 4 W): 0.11 | Total related material ([4]; relative humidity 93%, 2 W): 0.54% | Water ([4]; relative humidity 93%, 2 W): 3.71% | Individual related material ([4]; relative humidity 93%, 2 W): 0.11 | Total related material ([4]; relative humidity 93%, 4 W): 0.62% | Water ([4]; relative humidity 93%, 4 W): 3.94% | Individual related material ([4]; relative humidity 93%, 4 W): 0.10
